The record followed here is ChEMBL document CHEMBL2029245, “Binding evaluation of fragment-based scaffolds for probing allosteric enzymes” (J Med Chem, 2012).

Assay [1] deals with T1, Glycogen phosphorylase, liver form (Homo sapiens, UniProt P06737).
T1 sequence (P06737 whole entry): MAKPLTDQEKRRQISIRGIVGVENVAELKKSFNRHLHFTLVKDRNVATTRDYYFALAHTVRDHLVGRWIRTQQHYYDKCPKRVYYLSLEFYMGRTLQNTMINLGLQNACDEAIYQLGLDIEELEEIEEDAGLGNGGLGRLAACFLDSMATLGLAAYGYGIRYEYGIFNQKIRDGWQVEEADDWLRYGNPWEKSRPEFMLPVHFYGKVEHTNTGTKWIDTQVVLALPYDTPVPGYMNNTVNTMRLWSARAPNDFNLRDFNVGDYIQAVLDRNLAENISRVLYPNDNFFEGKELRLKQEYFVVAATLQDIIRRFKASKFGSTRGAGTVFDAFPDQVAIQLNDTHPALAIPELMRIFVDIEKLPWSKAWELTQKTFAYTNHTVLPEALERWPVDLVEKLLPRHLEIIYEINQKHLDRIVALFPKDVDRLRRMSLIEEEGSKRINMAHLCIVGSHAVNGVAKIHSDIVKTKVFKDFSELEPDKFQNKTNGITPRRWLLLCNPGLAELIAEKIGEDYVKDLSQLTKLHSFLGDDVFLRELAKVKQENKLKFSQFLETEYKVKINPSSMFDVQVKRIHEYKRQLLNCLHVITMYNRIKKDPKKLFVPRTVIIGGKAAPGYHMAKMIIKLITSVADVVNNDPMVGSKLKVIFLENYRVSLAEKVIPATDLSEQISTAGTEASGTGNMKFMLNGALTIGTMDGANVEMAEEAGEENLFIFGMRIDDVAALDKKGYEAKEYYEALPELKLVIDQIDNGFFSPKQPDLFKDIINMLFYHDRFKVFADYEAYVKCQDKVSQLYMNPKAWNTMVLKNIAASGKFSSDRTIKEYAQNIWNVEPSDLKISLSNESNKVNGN
Kind of assay: Binding affinity to human liver GPa by NMR binding assay.

In assay [2] the target is T2, Glycogen phosphorylase, muscle form (Oryctolagus cuniculus, UniProt P00489).
T2 sequence (P00489 whole entry): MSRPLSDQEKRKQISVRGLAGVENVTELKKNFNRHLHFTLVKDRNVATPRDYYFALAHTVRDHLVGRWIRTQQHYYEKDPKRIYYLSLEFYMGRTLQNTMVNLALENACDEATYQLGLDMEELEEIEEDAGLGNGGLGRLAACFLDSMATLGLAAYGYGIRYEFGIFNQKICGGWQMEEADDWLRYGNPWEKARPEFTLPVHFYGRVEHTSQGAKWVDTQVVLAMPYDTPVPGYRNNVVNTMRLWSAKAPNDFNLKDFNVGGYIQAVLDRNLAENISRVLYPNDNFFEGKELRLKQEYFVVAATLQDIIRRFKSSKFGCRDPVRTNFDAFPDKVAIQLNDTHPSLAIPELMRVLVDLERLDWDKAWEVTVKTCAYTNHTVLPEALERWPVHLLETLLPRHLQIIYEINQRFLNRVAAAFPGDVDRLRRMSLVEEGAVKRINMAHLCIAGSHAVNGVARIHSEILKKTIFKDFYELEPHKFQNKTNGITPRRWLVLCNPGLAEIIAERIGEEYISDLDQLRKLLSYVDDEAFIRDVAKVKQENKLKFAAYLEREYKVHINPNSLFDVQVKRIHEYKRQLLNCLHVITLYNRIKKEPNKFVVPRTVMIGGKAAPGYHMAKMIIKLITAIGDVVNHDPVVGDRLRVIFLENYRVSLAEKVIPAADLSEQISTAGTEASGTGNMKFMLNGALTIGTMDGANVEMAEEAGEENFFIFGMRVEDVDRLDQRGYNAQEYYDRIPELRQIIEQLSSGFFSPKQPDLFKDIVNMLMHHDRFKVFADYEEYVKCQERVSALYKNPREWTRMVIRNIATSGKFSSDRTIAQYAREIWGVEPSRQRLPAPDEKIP
Description: Binding affinity to rabbit muscular GPb by NMR binding assay

The target of assay [3] is T2, Glycogen phosphorylase, muscle form. The experiment in a line: Binding affinity to rabbit muscular GPa by NMR binding assay.

For orientation: IC50 means the point on the concentration scale where inhibition reaches its midpoint. A lower IC50 goes with higher potency. For `COCCNC(=O)c1c[nH]c2ccc(Cl)cc12`, the IC50 in assay [1] was 12.5 µM.

Molecule `O=C1NCC(O)NC12O[C@H](CO)[C@@H](O)[C@H](O)[C@H]2O` (stereo not given in full) gave a 50% inhibitory concentration (IC50) in assay [2] of 59.8 µM. On to `Cc1cc(F)c(Sc2nccn2C)cc1C(=O)Nc1cccc(C#N)c1`, for which the IC50 in assay [3] is 9.9 µM. Regarding `Nc1ccccc1C(=O)Nc1ccccc1Oc1ccc(C(=O)O)c(C(=O)O)c1`, the IC50 amounted to 1.3 µM in assay [1] and 0.9 µM in assay [2]. Molecule `Cc1cc(F)c(Sc2nccn2C)cc1C(=O)Nc1cccc(N)c1` yielded an IC50 in assay [3] of 2.7 µM. Consider `O=C(NC(=O)c1cc2ccccc2[nH]1)N[C@@H]1O[C@H](CO)[C@@H](O)[C@H](O)[C@H]1O`, for which the IC50 in assay [2] amounted to 4 µM. The molecule `O=C(CN1CCN(c2ccccc2)CC1)Nc1nccs1` showed an IC50 in assay [3] of 96.9 µM. As to `O=C(O)c1ccccc1-n1cc(C(=O)O)c(=O)c2cc(Cc3c(F)cc(F)cc3Cl)c(Cl)cc21`, in assay [2], the IC50 came to 0.024 µM. With `Cc1cn([C@@H]2O[C@H](CO)[C@@H](O)[C@H](O)[C@H]2O)c(=O)[nH]c1=O`, in assay [2], the midpoint of inhibition, the IC50, lay at 6.6 µM.
